From paper PMC5448077, “Development of an orally available inhibitor of CLK1 for skipping a mutated dystrophin exon in Duchenne muscular dystrophy” (Scientific Reports, 2017)

Experiments:
Assay in all cases: biochemical
ABL(T315I) = biological target: T1, ABL(T315I) (Homo sapiens, UniProt P00519, T315I)
T1 construct: gene ABL1
Protocol: (§1) These assays rely on the phosphorylation of small synthetic peptides developed for each kinase, and detect activity by changes in electrophoretic mobility (MSA assay) or by binding of a fluorescently labelled peptide to a large micro-particle and concomitant polarization increases (IMAP assay). Reaction conditions for each kinase are described in Supplementary Table S5. All kinase assays were carried out at Carna Biosciences (Kobe, Japan). The inhibitory map was constructed using Kinome Render[41]. Inhibitor (4×), substrate/ATP-Metal (4×), and kinase (2×) solutions were prepared with assay buffer (20 mM HEPES, 0.01% Triton X-100, 2 mM DTT, pH 7.5) and mixed in 384-well plates at room temperature for 1 or 5 h depending on the kinase. Reactions were stopped by the addition of termination buffer (QuickScout Screening Assist MSA; Carna Biosciences). The entire reaction mixture was then applied to a LabChip system (Perkin-Elmer, Waltham, MA, USA) and the product and substrate peptide peaks were separated and quantified, and then heights of product (P) and substrate (S) peptide peaks were calculated. The level of kinase activity was evaluated with the following equation: activity = P/(P + S).

BRSK2 = BRSK2 (Homo sapiens, UniProt Q8IWQ3)
Protocol: as §1

CDK3/CycE1 = CDK3/CycE1 (Homo sapiens, UniProt Q00526)
Protocol: as §1

CLK3 = CLK3 (Homo sapiens, UniProt P49761)
Protocol: as §1

DYRK3 = DYRK3 (Homo sapiens, UniProt O43781)
Protocol: as §1

EPHA1 = EPHA1 (Homo sapiens, UniProt P21709)
Protocol: as §1

EPHB2 = EPHB2 (Homo sapiens, UniProt P29323)
Protocol: as §1

FLT3 = FLT3 (Homo sapiens, UniProt P36888)
Protocol: as §1

HIPK2 = HIPK2 (Homo sapiens, UniProt Q9H2X6)
Protocol: as §1

HIPK4 = HIPK4 (Homo sapiens, UniProt Q8NE63)
Protocol: as §1

IKKα = biological target: T2, IKKα (Homo sapiens, UniProt O15111)
T2 construct: gene CHUK
Protocol: as §1

IRAK4 = IRAK4 (Homo sapiens, UniProt Q9NWZ3)
Protocol: as §1

IRR = biological target: T3, IRR (Homo sapiens, UniProt P14616)
T3 construct: gene INSRR
Protocol: as §1

LOK = biological target: T4, LOK (Homo sapiens, UniProt O94804)
T4 construct: gene STK10
Protocol: as §1

LTK = LTK (Homo sapiens, UniProt P29376)
Protocol: as §1

MNK1 = biological target: T5, MNK1 (Homo sapiens, UniProt Q9BUB5)
T5 construct: gene MKNK1
Protocol: as §1

MNK2 = biological target: T6, MNK2 (Homo sapiens, UniProt Q9HBH9)
T6 construct: gene MKNK2
Protocol: as §1

MST2 = biological target: T7, MST2 (Homo sapiens, UniProt Q13188)
T7 construct: gene STK3
Protocol: as §1

MUSK = MUSK (Homo sapiens, UniProt O15146)
Protocol: as §1

NDR2 = biological target: T8, NDR2 (Homo sapiens, UniProt Q9Y2H1)
T8 construct: gene STK38L
Protocol: as §1

PIK3CA/PIK3R1 = PIK3CA/PIK3R1 (Homo sapiens, UniProt P42336)
Protocol: as §1

PKACβ = biological target: T9, PKACβ (Homo sapiens, UniProt P22694)
T9 construct: gene PRKACB
Protocol: as §1

PKCβ2 = biological target: T10, PKCβ2 (Homo sapiens, UniProt P05771)
T10 construct: gene PRKCB; isoform beta2
Protocol: as §1

PKCγ = biological target: T11, PKCγ (Homo sapiens, UniProt P05129)
T11 construct: gene PRKCG
Protocol: as §1

PKCε = biological target: T12, PKCε (Homo sapiens, UniProt Q02156)
T12 construct: gene PRKCE
Protocol: as §1

PKD2 = biological target: T13, PKD2 (Homo sapiens, UniProt Q9BZL6)
T13 construct: gene PRKD2
Protocol: as §1

PRKX = PRKX (Homo sapiens, UniProt P51817)
Protocol: as §1

RET(M918T) = RET(M918T) (Homo sapiens, UniProt P07949, M918T)
Protocol: as §1

SGK3 = SGK3 (Homo sapiens, UniProt Q96BR1)
Protocol: as §1

TXK = TXK (Homo sapiens, UniProt P42681)
Protocol: as §1

WNK3 = WNK3 (Homo sapiens, UniProt Q9BYP7)
Protocol: as §1

T4 sequence (O94804 whole entry): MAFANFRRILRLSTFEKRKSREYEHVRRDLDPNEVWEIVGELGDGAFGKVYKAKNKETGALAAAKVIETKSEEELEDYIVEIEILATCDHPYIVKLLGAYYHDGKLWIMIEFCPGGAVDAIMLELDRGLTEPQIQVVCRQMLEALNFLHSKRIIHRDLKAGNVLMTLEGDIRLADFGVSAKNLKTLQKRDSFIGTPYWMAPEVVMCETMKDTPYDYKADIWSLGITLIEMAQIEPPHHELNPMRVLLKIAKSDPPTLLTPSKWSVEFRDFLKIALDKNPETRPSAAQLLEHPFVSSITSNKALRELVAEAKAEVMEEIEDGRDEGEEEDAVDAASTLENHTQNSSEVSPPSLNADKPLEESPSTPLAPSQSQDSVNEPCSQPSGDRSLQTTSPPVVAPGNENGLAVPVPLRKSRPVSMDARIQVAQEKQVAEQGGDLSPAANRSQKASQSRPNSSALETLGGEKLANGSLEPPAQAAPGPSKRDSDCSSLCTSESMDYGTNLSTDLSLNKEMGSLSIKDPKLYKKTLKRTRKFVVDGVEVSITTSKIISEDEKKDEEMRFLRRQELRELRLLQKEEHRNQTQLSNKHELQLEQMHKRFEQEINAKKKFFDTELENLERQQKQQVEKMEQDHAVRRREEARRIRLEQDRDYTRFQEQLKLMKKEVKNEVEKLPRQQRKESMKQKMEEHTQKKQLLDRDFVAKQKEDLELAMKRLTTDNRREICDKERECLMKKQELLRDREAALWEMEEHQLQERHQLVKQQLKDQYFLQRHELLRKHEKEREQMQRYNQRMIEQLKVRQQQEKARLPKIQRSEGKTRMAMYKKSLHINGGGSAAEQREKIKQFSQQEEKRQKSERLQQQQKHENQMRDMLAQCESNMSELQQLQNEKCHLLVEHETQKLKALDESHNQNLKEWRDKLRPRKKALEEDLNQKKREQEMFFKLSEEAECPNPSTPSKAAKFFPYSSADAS
Chain of DYRK3 (O43781 whole entry): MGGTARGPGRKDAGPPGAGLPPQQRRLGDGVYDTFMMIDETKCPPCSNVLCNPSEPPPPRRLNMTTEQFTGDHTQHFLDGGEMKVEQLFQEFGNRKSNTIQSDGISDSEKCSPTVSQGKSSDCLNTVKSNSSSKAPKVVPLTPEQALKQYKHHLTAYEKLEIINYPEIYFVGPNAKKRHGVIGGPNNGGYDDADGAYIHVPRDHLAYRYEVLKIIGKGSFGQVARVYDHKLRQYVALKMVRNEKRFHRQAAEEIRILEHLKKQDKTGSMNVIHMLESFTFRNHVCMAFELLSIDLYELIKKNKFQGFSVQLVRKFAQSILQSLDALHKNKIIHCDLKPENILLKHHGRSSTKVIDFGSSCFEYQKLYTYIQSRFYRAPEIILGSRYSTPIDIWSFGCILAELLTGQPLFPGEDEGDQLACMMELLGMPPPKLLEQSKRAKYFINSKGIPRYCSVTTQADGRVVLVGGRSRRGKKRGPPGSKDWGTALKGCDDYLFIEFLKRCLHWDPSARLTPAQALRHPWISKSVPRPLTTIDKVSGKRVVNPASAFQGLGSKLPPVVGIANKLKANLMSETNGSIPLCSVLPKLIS
T12 sequence (Q02156 whole entry): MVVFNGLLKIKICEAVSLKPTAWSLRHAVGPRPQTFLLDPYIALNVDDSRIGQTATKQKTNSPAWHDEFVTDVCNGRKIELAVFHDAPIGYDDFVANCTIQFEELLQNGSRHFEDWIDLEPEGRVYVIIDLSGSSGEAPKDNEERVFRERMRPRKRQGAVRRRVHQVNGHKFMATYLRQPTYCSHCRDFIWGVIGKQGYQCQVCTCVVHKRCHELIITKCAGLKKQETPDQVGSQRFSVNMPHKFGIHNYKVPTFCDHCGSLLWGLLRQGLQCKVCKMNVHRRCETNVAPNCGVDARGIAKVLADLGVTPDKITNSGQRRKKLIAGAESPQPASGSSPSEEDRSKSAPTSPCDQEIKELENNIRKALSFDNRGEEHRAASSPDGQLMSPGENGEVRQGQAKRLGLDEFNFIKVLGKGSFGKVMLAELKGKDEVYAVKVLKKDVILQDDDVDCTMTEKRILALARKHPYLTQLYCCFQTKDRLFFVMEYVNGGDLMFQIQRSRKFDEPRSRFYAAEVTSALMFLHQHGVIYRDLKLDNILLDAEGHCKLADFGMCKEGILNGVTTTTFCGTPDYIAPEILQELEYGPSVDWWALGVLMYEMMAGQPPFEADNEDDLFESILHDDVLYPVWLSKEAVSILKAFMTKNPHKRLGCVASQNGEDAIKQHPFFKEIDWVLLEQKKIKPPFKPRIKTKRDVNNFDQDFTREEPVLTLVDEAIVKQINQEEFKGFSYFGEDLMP
T8 sequence (Q9Y2H1 whole entry): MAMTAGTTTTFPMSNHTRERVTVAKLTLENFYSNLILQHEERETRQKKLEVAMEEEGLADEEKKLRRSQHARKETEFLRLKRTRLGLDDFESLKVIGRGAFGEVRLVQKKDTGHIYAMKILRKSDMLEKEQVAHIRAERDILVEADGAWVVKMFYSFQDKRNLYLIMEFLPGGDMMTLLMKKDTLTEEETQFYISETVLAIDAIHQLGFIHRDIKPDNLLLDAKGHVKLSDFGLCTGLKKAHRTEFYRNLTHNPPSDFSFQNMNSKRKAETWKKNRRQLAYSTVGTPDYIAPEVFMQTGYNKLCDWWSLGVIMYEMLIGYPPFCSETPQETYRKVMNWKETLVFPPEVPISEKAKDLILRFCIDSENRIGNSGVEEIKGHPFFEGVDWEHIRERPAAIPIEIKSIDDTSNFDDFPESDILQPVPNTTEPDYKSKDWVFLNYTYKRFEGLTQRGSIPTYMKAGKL
Chain of EPHA1 (P21709 whole entry): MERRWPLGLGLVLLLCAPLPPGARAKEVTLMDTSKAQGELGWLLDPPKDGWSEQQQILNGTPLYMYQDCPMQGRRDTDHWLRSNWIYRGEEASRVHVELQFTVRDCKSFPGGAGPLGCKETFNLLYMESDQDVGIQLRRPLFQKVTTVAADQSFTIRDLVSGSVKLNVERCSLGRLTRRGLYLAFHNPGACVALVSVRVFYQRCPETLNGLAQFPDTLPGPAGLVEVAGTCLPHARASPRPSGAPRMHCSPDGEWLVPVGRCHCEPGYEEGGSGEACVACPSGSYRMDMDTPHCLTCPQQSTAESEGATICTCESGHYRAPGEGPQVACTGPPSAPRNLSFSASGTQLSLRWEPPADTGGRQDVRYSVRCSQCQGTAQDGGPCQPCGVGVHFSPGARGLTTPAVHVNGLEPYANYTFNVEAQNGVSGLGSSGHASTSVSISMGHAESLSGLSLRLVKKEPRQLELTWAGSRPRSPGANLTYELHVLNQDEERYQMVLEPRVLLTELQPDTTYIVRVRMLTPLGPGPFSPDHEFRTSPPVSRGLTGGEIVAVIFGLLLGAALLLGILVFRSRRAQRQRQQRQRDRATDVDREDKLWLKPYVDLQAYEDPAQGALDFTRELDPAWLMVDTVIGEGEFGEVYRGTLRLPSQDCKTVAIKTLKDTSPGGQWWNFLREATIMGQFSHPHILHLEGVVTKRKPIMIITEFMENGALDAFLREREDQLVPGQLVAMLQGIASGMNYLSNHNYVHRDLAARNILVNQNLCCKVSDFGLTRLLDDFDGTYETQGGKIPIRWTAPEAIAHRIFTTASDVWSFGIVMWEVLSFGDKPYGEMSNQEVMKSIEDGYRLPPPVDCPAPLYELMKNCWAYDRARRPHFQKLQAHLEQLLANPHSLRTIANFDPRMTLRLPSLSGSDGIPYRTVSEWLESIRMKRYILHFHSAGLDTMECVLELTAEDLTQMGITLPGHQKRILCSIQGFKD
Chain of SGK3 (Q96BR1 whole entry): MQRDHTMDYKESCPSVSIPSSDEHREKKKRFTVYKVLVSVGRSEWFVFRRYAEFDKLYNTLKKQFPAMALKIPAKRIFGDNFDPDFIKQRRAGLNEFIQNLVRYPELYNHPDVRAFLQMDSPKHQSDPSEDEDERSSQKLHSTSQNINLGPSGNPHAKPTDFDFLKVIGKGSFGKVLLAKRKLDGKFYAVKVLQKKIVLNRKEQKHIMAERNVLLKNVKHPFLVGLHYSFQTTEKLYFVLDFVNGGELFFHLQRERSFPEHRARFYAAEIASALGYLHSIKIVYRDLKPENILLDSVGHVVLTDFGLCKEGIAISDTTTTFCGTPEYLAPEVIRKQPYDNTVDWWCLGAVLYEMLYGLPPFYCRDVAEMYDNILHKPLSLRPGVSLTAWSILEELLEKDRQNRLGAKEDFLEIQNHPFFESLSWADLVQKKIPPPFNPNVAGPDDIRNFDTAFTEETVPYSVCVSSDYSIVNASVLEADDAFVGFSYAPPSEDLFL

SMILES: c1cc(-c2ccc3[nH]ncc3c2)ccn1 [TG693, 5-(4-pyridinyl)-1H-indazole]
- inhibition at 1 µM (ABL(T315I)): 6.5%
- inhibition at 1 µM (BRSK2): 6.7%
- inhibition at 1 µM (CDK3/CycE1): 11.4%
- inhibition at 1 µM (CLK3): 11.7%
- inhibition at 1 µM (DYRK3): 64%
- inhibition at 1 µM (EPHA1): -2.8%
- inhibition at 1 µM (EPHB2): 0.3%
- inhibition at 1 µM (FLT3): 17.5%
- inhibition at 1 µM (HIPK2): -2%
- inhibition at 1 µM (HIPK4): 7.6%
- inhibition at 1 µM (IKKα): 14.6%
- inhibition at 1 µM (IRAK4): 8.4%
- inhibition at 1 µM (IRR): 3%
- inhibition at 1 µM (LOK): 5.9%
- inhibition at 1 µM (LTK): 3%
- inhibition at 1 µM (MNK1): 45.7%
- inhibition at 1 µM (MNK2): 57.3%
- inhibition at 1 µM (MST2): 0.5%
- inhibition at 1 µM (MUSK): -5%
- inhibition at 1 µM (NDR2): 7.5%
- inhibition at 1 µM (PIK3CA/PIK3R1): 36.8%
- inhibition at 1 µM (PKACβ): 3.1%
- inhibition at 1 µM (PKCβ2): -11.8%
- inhibition at 1 µM (PKCγ): -11.4%
- inhibition at 1 µM (PKCε): 12.3%
- inhibition at 1 µM (PKD2): 5.4%
- inhibition at 1 µM (PRKX): 12.2%
- inhibition at 1 µM (RET(M918T)): -2.6%
- inhibition at 1 µM (SGK3): -3.2%
- inhibition at 1 µM (TXK): -1%
- inhibition at 1 µM (WNK3): -4.9%
